Where a name gives a salt, the structure may show the parent alone. Read-outs that look alike come from different tables or passages of the source.
Columns and labels:
[1] = biological target: T1, human NTCP (Homo sapiens, UniProt Q14973); experiment: Screening taurocholate uptake assay (96-well, [14C]taurocholate, 10 µM drug)
T1 sequence (Q14973 1-349): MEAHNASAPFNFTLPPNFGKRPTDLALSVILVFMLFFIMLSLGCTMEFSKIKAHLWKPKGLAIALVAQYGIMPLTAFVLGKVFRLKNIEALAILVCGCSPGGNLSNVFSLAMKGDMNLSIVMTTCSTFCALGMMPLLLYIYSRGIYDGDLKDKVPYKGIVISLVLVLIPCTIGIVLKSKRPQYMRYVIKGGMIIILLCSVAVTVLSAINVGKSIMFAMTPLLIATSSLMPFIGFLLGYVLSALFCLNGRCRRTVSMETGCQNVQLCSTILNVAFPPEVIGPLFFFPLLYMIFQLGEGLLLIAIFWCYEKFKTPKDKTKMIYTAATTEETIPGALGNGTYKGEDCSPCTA

[2] = biological target: T1, human NTCP; experiment: Screening fluorescent competitive Myrcludex B-FITC binding assay (96-well, 10 µM drug)
[3] = combined ranking from functional and binding screening assays
[4] = screen, 10 µM drug, taurocholate uptake
[5] = screen, 10 µM drug, Myrcludex B-FITC binding
[6] = Prestwick library screen, 10 µM drug, B-score of taurocholate uptake
[7] = combined ranking from functional and binding assay B-scores
[8] = Prestwick library screen, 10 µM drug, B-score of Myrcludex B-FITC binding
[9] = Prestwick library screen, taurocholate uptake, 10 µM drug
[10] = ranking score beside the functional and binding assay B-scores of the screen
[11] = Prestwick library screen, Myrcludex B-FITC binding, 10 µM drug

Compound | B-score functional assay [1, 6] | Ranking score [1, 7] | B-score binding assay [2, 8] | B-score functional assay [1, 9] | Ranking score [1, 10] | B-score binding assay [2, 11] | other results
CC(=O)[C@H]1CC[C@H]2[C@@H]3CC=C4C[C@@H](O)CC[C@]4(C)[C@H]3CC[C@]12C [Pregnenolone] | – | – | – | – | – | – | Ranking score [1, 3]: 297.104; B-score functional assay [1, 4]: -2.394; B-score binding assay [2, 5]: 0.35
CC(Cc1ccccc1)NCCC(c1ccccc1)c1ccccc1 (centres unmarked) [Prenylamine lactate] | 1.102 | 975.256 | 0.388 | – | – | – | –
CS(=O)(=O)O.OC(CCN1CCCCC1)(c1ccccc1)c1ccccc1 [Pridinol methanesulfonate salt] | 1.063 | 875.882 | 0.059 | – | – | – | –
CCCNC(C)C(=O)Nc1ccccc1C (centres unmarked) [Prilocaine hydrochloride] | – | – | – | – | – | – | Ranking score [1, 3]: 304.329; B-score functional assay [1, 4]: 0.027; B-score binding assay [2, 5]: -1.737
COc1cc(NC(C)CCCN)c2ncccc2c1 (centres unmarked) [Primaquine diphosphate] | 4.393 | 1046.51 | 0.361 | – | – | – | –
CCC1(c2ccccc2)C(=O)NCNC1=O [Primidone] | – | – | – | 1.471 | 845.018 | -0.009 | –
CCCN(CCC)S(=O)(=O)c1ccc(C(=O)O)cc1 [Probenecid] | – | – | – | -0.194 | 677.591 | 0.597 | –
CC(C)(Sc1cc(C(C)(C)C)c(O)c(C(C)(C)C)c1)Sc1cc(C(C)(C)C)c(O)c(C(C)(C)C)c1 [Probucol] | 0.089 | 969.367 | 3.305 | – | – | – | –
CCN(CC)CCNC(=O)c1ccc(N)cc1 [Procainamide hydrochloride] | – | – | – | 0.646 | 672.44 | -0.246 | –
CCN(CC)CCOC(=O)c1ccc(N)cc1 [Procaine hydrochloride] | – | – | – | – | – | – | Ranking score [1, 3]: 459.439; B-score functional assay [1, 4]: -1.181; B-score binding assay [2, 5]: 0.574
CNNCc1ccc(C(=O)NC(C)C)cc1 [Procarbazine hydrochloride] | – | – | – | – | – | – | Ranking score [1, 3]: 345.534; B-score functional assay [1, 4]: -0.792; B-score binding assay [2, 5]: -0.424
[H]/N=C(\N/C(=N/[H])Nc1ccc(Cl)cc1)NC(C)C [Proguanil hydrochloride] | – | – | – | – | – | – | Ranking score [1, 3]: 309.176; B-score functional assay [1, 4]: -0.025; B-score binding assay [2, 5]: -1.489
CN(C)CCCN1c2ccccc2Sc2ccccc21 [Promazine hydrochloride] | – | – | – | – | – | – | B-score functional assay [1]: 0.194; Ranking score [1]: 494.272; B-score binding assay [2]: -0.725
CC(CN1c2ccccc2Sc2ccccc21)N(C)C (centres unmarked) [Promethazine hydrochloride] | -0.002 | 866.133 | 1.811 | – | – | – | –
CC(C)NCC(O)c1ccc2ccccc2c1.Cl (centres unmarked) [Pronethalol hydrochloride] | – | – | – | – | – | – | Ranking score [1, 3]: 409.31; B-score functional assay [1, 4]: -0.999; B-score binding assay [2, 5]: 0.008
CCCNCC(O)COc1ccccc1C(=O)CCc1ccccc1 (centres unmarked) [Propafenone hydrochloride] | – | – | – | -0.211 | 771.984 | 2.716 | –
CCCOc1ccc(C(=O)OCCN(CC)CC)cc1N [Proparacaine hydrochloride] | 0.236 | 984.211 | 1.832 | – | – | – | –
CC(C)c1cccc(C(C)C)c1O [Propofol] | – | – | – | – | – | – | B-score functional assay [1]: -4.147; Ranking score [1]: 144.551; B-score binding assay [2]: -0.036
CCCc1cc(=O)[nH]c(=S)[nH]1 [Propylthiouracil] | – | – | – | 0.437 | 823.744 | 0.14 | –

Compound | B-score functional assay [1, 6] | Ranking score [1, 7] | B-score binding assay [2, 8] | B-score functional assay [1, 9] | Ranking score [1, 10] | B-score binding assay [2, 11] | other results
CCCc1cc(C(N)=S)ccn1 [Prothionamide] | – | – | – | -0.17 | 776.121 | 2.241 | –
CNCCCC1c2ccccc2C=Cc2ccccc21 [Protriptyline hydrochloride] | – | – | – | – | – | – | Ranking score [1, 3]: 390.896; B-score functional assay [1, 4]: -0.483; B-score binding assay [2, 5]: -0.431
Cc1ncc(CO)c(CO)c1O [Pyridoxine hydrochloride] | 0.632 | 1004.23 | 1.062 | – | – | – | –
COc1ccc(CN(CCN(C)C)c2ccccn2)cc1 [Pyrilamine maleate] | – | – | – | – | – | – | Ranking score [1, 3]: 458.048; B-score functional assay [1, 4]: -0.86; B-score binding assay [2, 5]: 0.121
CCN(CC)CCCC(C)Nc1c2ccc(Cl)cc2nc2ccc(OC)cc12.Cl.Cl (centres unmarked) [Quinacrine dihydrochloride hydrate] | – | – | – | – | – | – | Ranking score [1, 3]: 399.375; B-score functional assay [1, 4]: -2.093; B-score binding assay [2, 5]: 7.101
CCOC(=O)[C@H](CCc1ccccc1)N[C@@H](C)C(=O)N1Cc2ccccc2C[C@H]1C(=O)O [Quinapril HCl] | 2.971 | 1103.9 | 0.741 | – | – | – | –
CCC1NC(=O)c2cc(S(N)(=O)=O)c(Cl)cc2N1 (centres unmarked) [Quinethazone] | – | – | – | 1.708 | 787.128 | -0.124 | –
C=C[C@H]1CN2CC[C@H]1C[C@@H]2[C@@H](O)c1ccnc2ccc(OC)cc12.Cl.O [Quinidine hydrochloride monohydrate] | – | – | – | – | 834.825 | -0.002 | –
O=C(O)/C=C\C(=O)O.O=C(O)/C=C\C(=O)O.c1ccc2nc(N3CCNCC3)ccc2c1 [Quipazine dimaleate salt] | 0.305 | 954.17 | 1.213 | – | – | – | –
COCCCOc1ccnc(C[S+]([O-])c2nc3ccccc3[nH]2)c1C (centres unmarked) [Rabeprazole Sodium salt] | – | – | – | 1.371 | 764.457 | -0.144 | –
CCN1CCC[C@H]1CNC(=O)c1c(O)c(Cl)cc(Cl)c1OC [Raclopride] | 0.507 | 891.19 | 0.374 | – | – | – | –
Cc1nc2ccc(CN(C)c3ccc(C(=O)N[C@@H](CCC(=O)O)C(=O)O)s3)cc2c(=O)[nH]1 [Raltitrexed] | – | – | – | – | – | – | Ranking score [1, 3]: 413.367; B-score functional assay [1, 4]: -1.033; B-score binding assay [2, 5]: 0.04
CCOC(=O)[C@H](CCc1ccccc1)N[C@@H](C)C(=O)N1[C@H](C(=O)O)C[C@@H]2CCC[C@@H]21 [Ramipril] | 0.852 | 1101.41 | 1.901 | – | – | – | –
C#CCN[C@@H]1CCc2ccccc21 [Rasagiline] | – | – | – | -0.098 | 667.796 | 0.275 | –
O=C(NC(Cc1cc(=O)[nH]c2ccccc12)C(=O)O)c1ccc(Cl)cc1 (centres unmarked) [Rebamipide] | 0.089 | 955.076 | 2.49 | – | – | – | –
CCOc1ccccc1OC(c1ccccc1)C1CNCCO1.CS(=O)(=O)O (centres unmarked) [Reboxetine mesylate] | – | – | – | 1.175 | 814.737 | -0.028 | –
COC(=O)[C@H]1[C@H]2C[C@@H]3c4[nH]c5cc(OC)ccc5c4CCN3C[C@H]2C[C@@H](OC(=O)c2cc(OC)c(OC)c(OC)c2)[C@@H]1OC [Reserpine] | – | – | – | 0.519 | 842.122 | 0.147 | –
NC(=O)c1ncn([C@@H]2O[C@H](CO)[C@@H](O)[C@H]2O)n1 [Ribavirin] | – | – | – | 0.312 | 712.803 | -0.029 | –
